How the values were obtained:
Type in all cases: biochemical
Bmx (h) = target: T1, Bmx (h) (Homo sapiens, UniProt P51813); experiment: Kinase profiling, glass-fiber filter technology: Bmx; conditions: test concentration of 10^−6 M; read-out: Bmx inhibition score
T1 sequence (P51813 1-675): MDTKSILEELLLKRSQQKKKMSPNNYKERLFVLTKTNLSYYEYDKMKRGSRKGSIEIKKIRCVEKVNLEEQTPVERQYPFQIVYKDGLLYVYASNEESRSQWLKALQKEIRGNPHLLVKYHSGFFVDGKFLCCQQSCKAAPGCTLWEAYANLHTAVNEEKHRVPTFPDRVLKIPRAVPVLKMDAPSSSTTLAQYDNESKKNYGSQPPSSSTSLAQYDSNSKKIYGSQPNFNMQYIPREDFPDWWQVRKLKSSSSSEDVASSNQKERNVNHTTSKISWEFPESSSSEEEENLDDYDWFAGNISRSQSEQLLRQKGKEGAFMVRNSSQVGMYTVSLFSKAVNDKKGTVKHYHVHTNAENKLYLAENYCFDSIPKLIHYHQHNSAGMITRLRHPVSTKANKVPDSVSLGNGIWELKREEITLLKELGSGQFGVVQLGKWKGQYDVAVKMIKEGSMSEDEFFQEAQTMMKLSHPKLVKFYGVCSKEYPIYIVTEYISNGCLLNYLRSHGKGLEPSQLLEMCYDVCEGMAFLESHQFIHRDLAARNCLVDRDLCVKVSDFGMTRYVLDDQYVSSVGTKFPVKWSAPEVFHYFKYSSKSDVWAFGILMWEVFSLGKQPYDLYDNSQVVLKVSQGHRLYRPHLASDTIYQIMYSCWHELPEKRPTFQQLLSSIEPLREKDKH
Procedure: (§1) The in vitro inhibition of a panel of kinases was assessed using the glass-fiber filter technology as described by Davies, S. P. et al., Biochem J. (2000), 351; p. 95-105.
(§2) In the glass-fiber filter technology the activity of the kinase of interest is measured using an appropriate substrate that is incubated with the aforementioned kinase protein in the presence of (^33P) radiolabeled ATP. (^33P) Phosporylation of the substrate is subsequently measured as radioactivity bound on a glassfiber-filter.
(§3) All kinases are pre-diluted to a 10× working concentration prior to addition into the assay. The composition of the dilution buffer for each kinase is detailed below.
(§4) All substrates are dissolved and diluted to working stocks in de-ionised water.
(§5) In a final reaction volume of 25 μl, Bmx (h) (5-10 mU) is incubated with 8 mM MOPS pH 7.0, 0.2 mM EDTA, 0.1 mg/ml poly(Glu, Tyr) 4:1, 10 mM MgAcetate and [γ-33P-ATP] (specific activity approx. 500 cpm/pmol, concentration as required). The reaction is initiated by the addition of the MgATP mix. After incubation for 40 minutes at room temperature, the reaction is stopped by the addition of 5 μl of a 3% phosphoric acid solution. 10 μl of the reaction is then spotted onto a Filtermat A and washed three times for 5 minutes in 75 mM phosphoric acid and once in methanol prior to drying and scintillation counting.

Yes (h) = Yes (h) (Homo sapiens, UniProt P07947); experiment: Kinase profiling, glass-fiber filter technology: Yes; conditions: test concentration of 10^−6 M; read-out: Yes inhibition score
Procedure: as §1, §2, §3, §4
as §5, with “Yes” for “Bmx”, “[γ-^33P-ATP]” for “[γ-33P-ATP]”

Fyn human = Fyn human (Homo sapiens, UniProt P06241); experiment: Kinase profiling, glass-fiber filter technology: Fyn; conditions: test concentration of 10^−6 M; read-out: Fyn inhibition score
Procedure: as §1, §2, §3, §4
(§6) In a final reaction volume of 25 μl, Fyn human (5-10 mU) is incubated with 50 mM Tris pH 7.5, 0.1 mM EGTA, 0.1 mM Na3VO4, 250 μM KVEKIGEGTYGVVYK (Cdc2 peptide), 10 mM MgAcetate and [γ-^33P-ATP] (specific activity approx. 500 cpm/pmol, concentration as required). The reaction is initiated by the addition of the MgATP mix. After incubation for 40 minutes at room temperature, the reaction is stopped by the addition of 5 μl of a 3% phosphoric acid solution. 10 μl of the reaction is then spotted onto a P30 filtermat and washed three times for 5 minutes in 75 mM phosphoric acid and once in methanol prior to drying and scintillation counting.

Ret human = Ret human (Homo sapiens, UniProt P07949); experiment: Kinase profiling, glass-fiber filter technology: Ret; conditions: test concentration of 10^−6 M; read-out: Ret inhibition score
Procedure: as §1, §2, §3, §4
as §6, with “μl, Ret” for “μl, Fyn”, “with 8” for “with 50”, “mM MOPS” for “mM Tris”, “pH 7.0, 0.2” for “pH 7.5, 0.1”, “mM EDTA,” for “mM EGTA, 0.1 mM Na3VO4,”, “μM KKKSPGEYVNIEFG,” for “μM KVEKIGEGTYGVVYK (Cdc2 peptide),”

Lyn (h) = Lyn (h) (Homo sapiens, UniProt P07948); experiment: Kinase profiling, glass-fiber filter technology: Lyn; conditions: test concentration of 10^−6 M; read-out: Lyn inhibition score
Procedure: as §1, §2, §3, §4
as §5, with “Lyn” for “Bmx”, “50” for “8”, “Tris” for “MOPS”, “7.5, 0.1” for “7.0, 0.2”, “EGTA, 0.1 mM Na3VO4, 0.1% β-mercaptoethanol,” for “EDTA,”, “[γ-^33P-ATP]” for “[γ-33P-ATP]”

Sequence of Yes (h) (P07947 whole entry): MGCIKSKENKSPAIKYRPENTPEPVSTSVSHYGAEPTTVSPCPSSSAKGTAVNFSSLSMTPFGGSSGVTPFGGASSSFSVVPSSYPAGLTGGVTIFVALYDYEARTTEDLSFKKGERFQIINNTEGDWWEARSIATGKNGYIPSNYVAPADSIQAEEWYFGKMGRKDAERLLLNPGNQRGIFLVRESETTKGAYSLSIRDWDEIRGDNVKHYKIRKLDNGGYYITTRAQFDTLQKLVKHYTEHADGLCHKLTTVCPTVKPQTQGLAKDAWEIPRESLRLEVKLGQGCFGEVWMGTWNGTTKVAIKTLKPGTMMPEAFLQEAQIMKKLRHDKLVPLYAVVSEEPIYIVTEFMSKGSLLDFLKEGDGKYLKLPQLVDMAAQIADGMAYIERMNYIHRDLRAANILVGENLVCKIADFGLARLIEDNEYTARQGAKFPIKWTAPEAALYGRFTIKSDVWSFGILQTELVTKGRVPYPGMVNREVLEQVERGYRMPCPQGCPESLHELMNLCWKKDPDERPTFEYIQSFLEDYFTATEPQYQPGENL
Sequence of Fyn human (P06241 whole entry): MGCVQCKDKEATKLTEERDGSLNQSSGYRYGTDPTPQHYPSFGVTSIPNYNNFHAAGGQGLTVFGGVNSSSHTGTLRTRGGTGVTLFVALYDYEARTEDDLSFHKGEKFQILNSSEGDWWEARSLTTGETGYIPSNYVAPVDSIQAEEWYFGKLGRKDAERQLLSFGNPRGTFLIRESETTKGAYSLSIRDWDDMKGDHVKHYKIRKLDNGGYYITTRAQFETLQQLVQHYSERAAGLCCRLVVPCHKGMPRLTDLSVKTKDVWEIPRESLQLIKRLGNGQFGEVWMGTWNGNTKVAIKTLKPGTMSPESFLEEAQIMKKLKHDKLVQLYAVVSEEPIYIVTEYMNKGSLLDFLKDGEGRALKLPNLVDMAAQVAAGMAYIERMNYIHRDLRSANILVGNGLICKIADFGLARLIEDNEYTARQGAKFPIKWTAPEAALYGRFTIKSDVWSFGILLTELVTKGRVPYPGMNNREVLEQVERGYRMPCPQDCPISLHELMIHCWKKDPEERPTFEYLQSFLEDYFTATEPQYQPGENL
Sequence of Lyn (h) (P07948 whole entry): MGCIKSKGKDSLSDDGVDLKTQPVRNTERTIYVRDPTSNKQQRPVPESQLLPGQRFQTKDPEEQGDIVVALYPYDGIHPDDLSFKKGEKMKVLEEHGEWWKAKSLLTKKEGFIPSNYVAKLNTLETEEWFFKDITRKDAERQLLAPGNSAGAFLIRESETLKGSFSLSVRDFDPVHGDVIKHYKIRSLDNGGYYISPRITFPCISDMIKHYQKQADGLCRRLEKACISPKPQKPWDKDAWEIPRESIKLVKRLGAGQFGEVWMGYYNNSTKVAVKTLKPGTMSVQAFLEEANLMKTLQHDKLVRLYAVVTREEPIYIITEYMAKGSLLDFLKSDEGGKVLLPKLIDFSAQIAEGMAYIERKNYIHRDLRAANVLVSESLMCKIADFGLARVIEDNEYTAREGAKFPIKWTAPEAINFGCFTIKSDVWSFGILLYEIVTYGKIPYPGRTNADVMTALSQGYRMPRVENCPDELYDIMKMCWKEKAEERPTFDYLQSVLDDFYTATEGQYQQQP
Sequence of Ret human (P07949 29-1114): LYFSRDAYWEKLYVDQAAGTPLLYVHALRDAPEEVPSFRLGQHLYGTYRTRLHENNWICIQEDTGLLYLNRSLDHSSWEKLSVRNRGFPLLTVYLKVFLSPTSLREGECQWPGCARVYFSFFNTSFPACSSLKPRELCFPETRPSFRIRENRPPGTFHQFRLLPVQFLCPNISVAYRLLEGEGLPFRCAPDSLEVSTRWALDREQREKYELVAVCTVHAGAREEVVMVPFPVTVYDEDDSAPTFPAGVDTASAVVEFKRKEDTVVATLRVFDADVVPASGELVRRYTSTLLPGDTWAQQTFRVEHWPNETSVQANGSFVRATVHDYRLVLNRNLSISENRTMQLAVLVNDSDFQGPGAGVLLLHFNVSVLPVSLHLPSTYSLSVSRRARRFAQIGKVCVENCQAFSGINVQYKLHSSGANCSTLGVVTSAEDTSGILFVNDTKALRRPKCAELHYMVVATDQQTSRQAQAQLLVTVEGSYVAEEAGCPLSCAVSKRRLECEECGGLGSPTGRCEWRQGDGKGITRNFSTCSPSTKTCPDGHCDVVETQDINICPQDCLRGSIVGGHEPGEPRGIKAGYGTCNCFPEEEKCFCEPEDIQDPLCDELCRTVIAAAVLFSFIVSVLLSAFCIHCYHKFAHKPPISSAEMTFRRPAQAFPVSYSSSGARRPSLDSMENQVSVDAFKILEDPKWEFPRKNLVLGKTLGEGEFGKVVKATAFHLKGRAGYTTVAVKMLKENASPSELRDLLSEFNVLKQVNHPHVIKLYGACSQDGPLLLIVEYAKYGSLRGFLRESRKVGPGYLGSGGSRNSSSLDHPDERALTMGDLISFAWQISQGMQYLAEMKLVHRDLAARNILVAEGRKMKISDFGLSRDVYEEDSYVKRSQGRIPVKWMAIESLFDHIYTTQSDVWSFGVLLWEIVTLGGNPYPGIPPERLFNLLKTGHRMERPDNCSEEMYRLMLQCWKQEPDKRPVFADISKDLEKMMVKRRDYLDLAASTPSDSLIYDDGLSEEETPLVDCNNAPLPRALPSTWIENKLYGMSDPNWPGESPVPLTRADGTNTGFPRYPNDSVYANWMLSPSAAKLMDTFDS

SMILES	inhibition at 1 µM (Bmx (h)) [%]	inhibition at 1 µM (Yes (h)) [%]	inhibition at 1 µM (Fyn human) [%]	inhibition at 1 µM (Ret human) [%]	inhibition at 1 µM (Lyn (h)) [%]
CC(=O)OCCN(C)CCCOc1cc2ncnc3c2cc1OCCCNC(=O)[C@H](C)N(C)Cc1cc(F)c(Cl)cc1N3 [Compound 2]	30 to 60	> 80	> 80	> 80	
CC(=O)NCCNCCCOc1cc2ncnc3c2cc1OCCCNC(=O)[C@H](C)N(C)Cc1cc(F)c(Cl)cc1N3 [Compound 4]	30 to 60	> 80	60 to 80	> 80	
CC(=O)N(CCO)CCCOc1cc2ncnc3c2cc1OCCCNC(=O)[C@H](C)N(C)Cc1cc(F)c(Cl)cc1N3 [Compound 5]	30 to 60	> 80	60 to 80	60 to 80	> 80
CC(=O)NCCN1CCN(CCCOc2cc3ncnc4c3cc2OCCCNC(=O)[C@H](C)N(C)Cc2cc(F)c(Cl)cc2N4)CC1 [Compound 6]	30 to 60	> 80	> 80		> 80
CN1CCCCCOc2cc3c(ncnc3cc2OCCCNC(=O)OC(C)(C)C)Nc2cc(Br)ccc2C1 [Compound 11]	10 to 30	> 80	60 to 80	> 80	30 to 60
CN1CCCCCOc2cc3c(ncnc3cc2OC[C@@H](O)CN2CCS(=O)(=O)CC2)Nc2cc(Br)ccc2C1 [Compound 12]	30 to 60	> 80	> 80	> 80	> 80
CC(=O)NCCNCCCOc1cc2ncnc3c2cc1OCCCCCN(C)Cc1ccc(Br)cc1N3 [Compound 13]	60 to 80	> 80		> 80	> 80
CN1CCCCCOc2cc3c(ncnc3cc2OCCCNCCS(C)(=O)=O)Nc2cc(Br)ccc2C1 [Compound 14]	30 to 60	> 80		> 80	> 80
COc1cc2ncnc3c2cc1OCCCN(CCN1CCOCC1)C(=O)CNC(=O)Cc1ccc(Cl)cc1N3 [Compound 15]		60 to 80	30 to 60	10 to 30	60 to 80
CN1CCCCCOc2cc3c(ncnc3cc2OC[C@H](O)CNCCOCCO)Nc2cc(Cl)c(F)cc2C1 [Compound 17]	60 to 80	> 80	> 80		> 80
CN1CCCCCOc2cc3c(ncnc3cc2OCCCNCCS(C)(=O)=O)Nc2cc(Cl)c(F)cc2C1 [Compound 18]	30 to 60	> 80	> 80		> 80
CN1CCCCCOc2cc3c(ncnc3cc2OCCCN2CCS(=O)(=O)CC2)Nc2cc(Cl)c(F)cc2C1 [Compound 19]	60 to 80	> 80	> 80	> 80	
C#Cc1ccc2c(c1)Nc1ncnc3cc(OCCCNCCS(C)(=O)=O)c(cc13)OCCCCCN(C)C2 [Compound 20]	60 to 80	> 80		> 80	> 80
C[C@H]1C(=O)NCCCOc2cc3c(ncnc3cc2OCCCN2CCN(C(=O)OC(C)(C)C)CC2)Nc2cc(Cl)c(F)cc2CN1C [Int. 16]	30 to 60		> 80	> 80	> 80
COc1cc2ncnc3c2cc1OCCCN(CCCN1CCOCC1)C(=O)[C@H](CC(C)C)NC(=O)Cc1ccc(Br)cc1N3 [Int. 25]		> 80	30 to 60	30 to 60	60 to 80
COCCOCCOc1cc2ncnc3c2cc1OCCCCCN(C)Cc1ccc(Br)cc1N3 [Int. 43]		> 80	> 80	> 80	> 80

— patent US9688691B2, “Macrocyclic quinazole derivatives and their use as MTKI” (Janssen Pharmaceutica NV, priority 2004, dated 2017)
